Data published in patent US20140135310A1, “SULPHONAMIDE DERIVATIVES OF ALICYCLIC AMINES FOR THE TREATMENT OF CENTRAL NERVOUS SYSTEM DISEASES” (Adamed Sp. z o.o., priority 2011, published 2014).

Tests used:
5-HT7 receptor = biological target: T1, 5-HT7 receptor (Homo sapiens, UniProt P34969); assay: Radioligand binding assay, serotoninergic 5-HT7 receptors; conditions: binding assay result in %, Table 5a;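 further: test compound at 1 µM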
T1 construct: purchased PerkinElmer
From the text: (§1) The specific ligand binding to the receptors is defined as the difference between the total binding and the non-specific binding determined in the presence of the excess of unlabelled ligand.
(§2) The results are expressed as a percent of control specific binding ((measured specific binding/control specific binding)×100) and as a percent inhibition of control specific binding (100−((measured specific binding/control specific binding)×100)) obtained in the presence of the test compounds. The specific ligand binding to the receptors is defined as the difference between the total binding and the nonspecific binding determined in the presence of an excess of unlabelled ligand. Scintillation counting was the method of detection of ligand binding. The IC50 values (concentration causing a half-maximal inhibition of control specific binding) were determined by non-linear regression analysis of the competition curves generated with mean replicate values using Hill equation curve fitting (Y=D+[(A−D)/(1+(C/C50)nH)], where Y=specific binding, D=minimum specific binding, A=maximum specific binding, C=compound concentration, C50=IC50, and nH=slope factor). This analysis was performed using a software developed at Cerep (Hill software) and validated by comparison with data generated by the commercial software SigmaPlot® 4.0 for Windows® (© 1997 by SPSS Inc.). The inhibition constants (Ki) were calculated using the Cheng Prusoff equation (Ki=IC50/(1+(L/KD)), where L=concentration of radioligand in the assay, and KD=affinity of the radioligand for the receptor). A scatchard plot was used to determine the Kd.
(§3) Experimental conditions for tests are given in Table 4, and results of tests for representative compounds of the invention are given in Table 5a and 5b (receptors 5-HT1A, 5-HT2A, 5-HT6 and 5-HT7) and in Table 6 (receptors 5-HT2C).
5-HT7: Bryan L. Roth. Assay Protocol Book. University of North Carolina At Chapel Hill. National Institute of Mental Health. Psychoactive Drug Screening Program. Available on-line at 31 Aug. 2008: http://pdsp.med.unc.edu/UNC-CH %20Protocol%20Book.pdf

[1] = biological target: dopaminergic receptors D3 (Homo sapiens, UniProt P35462); assay: Radioligand binding assay, dopaminergic D3 receptors; conditions: test compound 1×10^−6 M
From the text: as §1, §2
(§4) Experimental conditions for tests are given in Table 1, the results of tests for representative compounds are given in Tables 2a and 2b (receptors D2 and D3) and in Table 3 (receptors D4).

[2] = biological target: T2, serotonin transporter (SERT) (Homo sapiens, UniProt P31645); assay: Radioligand binding assay, serotonin transporter (SERT); conditions: binding assay, test compound 1×10^−6 M
T2 construct: expressed in transfected cells; host or cells: CHO cells
From the text: as §1, §2
Experimental conditions for tests are given in Table 12, and results of tests for representative compounds are given in Tables 13a and 13b.

[3] = biological target: dopaminergic receptors D2 (Homo sapiens, UniProt P14416); assay: Radioligand binding assay, dopaminergic D2 receptors; conditions: binding assay, test compound 1×10^−6 M
From the text: as §1, §2, §4

[4] = biological target: T3, 5-HT1A receptor (rat hippocampus) (Rattus norvegicus, UniProt P19327); assay: Radioligand binding assay, serotoninergic 5-HT1A receptors; conditions: binding assay result in %, Table 5a;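 further: test compound at 1 µM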
T3 construct: hippocampus; from tissue; host or cells: rat hippocampus
T3 sequence (P19327 1-422): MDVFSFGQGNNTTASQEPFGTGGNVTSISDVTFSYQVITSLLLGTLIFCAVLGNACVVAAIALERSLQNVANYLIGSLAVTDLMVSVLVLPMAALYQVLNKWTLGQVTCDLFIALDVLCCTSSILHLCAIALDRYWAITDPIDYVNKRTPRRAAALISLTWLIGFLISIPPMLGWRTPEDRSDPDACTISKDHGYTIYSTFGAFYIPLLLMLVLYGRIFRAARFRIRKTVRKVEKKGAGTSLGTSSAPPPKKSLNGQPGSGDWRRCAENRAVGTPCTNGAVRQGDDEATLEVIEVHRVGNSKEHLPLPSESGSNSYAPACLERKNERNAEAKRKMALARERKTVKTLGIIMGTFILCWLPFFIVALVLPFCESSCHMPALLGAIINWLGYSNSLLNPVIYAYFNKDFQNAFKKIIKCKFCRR
From the text: as §1, §2, §3

5-HT6 receptor = biological target: T4, 5-HT6 receptor (Homo sapiens, UniProt P50406); assay: Radioligand binding assay, serotoninergic 5-HT6 receptors; conditions: binding assay result in %, Table 5a;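 further: test compound at 1 µM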
T4 construct: purchased PerkinElmer
From the text: as §1, §2, §3
5-HT6: Bryan L. Roth. Assay Protocol Book. University of North Carolina At Chapel Hill. National Institute of Mental Health. Psychoactive Drug Screening Program. Available on-line at 31 Aug. 2008: http://pdsp.med.unc.edu/UNC-CH %20Protocol%20Book.pdf

5-HT2A receptor = biological target: T5, 5-HT2A receptor (Homo sapiens, UniProt P28223); assay: Radioligand binding assay, serotoninergic 5-HT2A receptors; conditions: binding assay result in %, Table 5a
T5 construct: purchased PerkinElmer
From the text: as §1, §2
5-HT2A: Bryan L. Roth. Assay Protocol Book. University of North Carolina At Chapel Hill. National Institute of Mental Health. Psychoactive Drug Screening Program. Available on-line at 31 Aug. 2008: http://pdsp.med.unc.edu/UNC-CH%20Protocol%20Book.pdf

T2 sequence (P31645 whole entry): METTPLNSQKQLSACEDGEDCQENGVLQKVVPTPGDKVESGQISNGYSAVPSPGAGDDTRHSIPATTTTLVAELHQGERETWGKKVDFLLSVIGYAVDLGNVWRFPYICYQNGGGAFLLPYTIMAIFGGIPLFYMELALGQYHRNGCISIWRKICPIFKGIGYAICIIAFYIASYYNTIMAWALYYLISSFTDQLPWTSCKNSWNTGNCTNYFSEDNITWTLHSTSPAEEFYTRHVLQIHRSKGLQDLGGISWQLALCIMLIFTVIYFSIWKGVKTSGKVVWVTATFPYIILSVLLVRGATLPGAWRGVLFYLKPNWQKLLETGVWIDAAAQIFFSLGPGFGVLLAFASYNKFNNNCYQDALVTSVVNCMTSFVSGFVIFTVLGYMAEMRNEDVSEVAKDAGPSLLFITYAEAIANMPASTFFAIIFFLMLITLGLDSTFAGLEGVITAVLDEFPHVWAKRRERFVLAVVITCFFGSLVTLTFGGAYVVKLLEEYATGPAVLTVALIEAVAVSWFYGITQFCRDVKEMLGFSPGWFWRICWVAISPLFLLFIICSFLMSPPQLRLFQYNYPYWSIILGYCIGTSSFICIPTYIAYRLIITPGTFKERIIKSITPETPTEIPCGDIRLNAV
T4 sequence (P50406 whole entry): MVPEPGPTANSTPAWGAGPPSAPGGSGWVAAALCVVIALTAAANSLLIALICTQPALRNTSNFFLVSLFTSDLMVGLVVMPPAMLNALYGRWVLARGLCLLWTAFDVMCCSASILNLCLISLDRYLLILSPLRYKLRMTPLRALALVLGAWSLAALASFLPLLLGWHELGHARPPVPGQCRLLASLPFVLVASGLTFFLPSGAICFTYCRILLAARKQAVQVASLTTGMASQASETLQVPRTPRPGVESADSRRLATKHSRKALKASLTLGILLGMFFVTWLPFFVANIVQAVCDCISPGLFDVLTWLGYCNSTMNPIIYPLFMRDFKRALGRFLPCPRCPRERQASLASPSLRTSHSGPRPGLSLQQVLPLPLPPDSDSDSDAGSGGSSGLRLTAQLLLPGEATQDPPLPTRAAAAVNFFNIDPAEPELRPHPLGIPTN
T5 sequence (P28223 whole entry): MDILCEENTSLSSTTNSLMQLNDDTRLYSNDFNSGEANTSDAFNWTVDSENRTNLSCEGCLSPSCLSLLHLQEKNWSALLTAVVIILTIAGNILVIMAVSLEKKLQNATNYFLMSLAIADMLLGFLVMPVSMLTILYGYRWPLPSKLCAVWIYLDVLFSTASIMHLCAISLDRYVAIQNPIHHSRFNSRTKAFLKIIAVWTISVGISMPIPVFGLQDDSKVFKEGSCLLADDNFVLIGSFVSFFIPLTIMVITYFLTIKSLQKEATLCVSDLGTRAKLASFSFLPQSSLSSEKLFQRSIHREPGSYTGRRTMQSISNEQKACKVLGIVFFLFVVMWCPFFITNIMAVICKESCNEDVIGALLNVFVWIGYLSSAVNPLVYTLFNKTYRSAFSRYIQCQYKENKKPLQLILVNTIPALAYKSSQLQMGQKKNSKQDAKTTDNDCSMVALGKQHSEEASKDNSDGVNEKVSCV
T1 sequence (P34969 whole entry): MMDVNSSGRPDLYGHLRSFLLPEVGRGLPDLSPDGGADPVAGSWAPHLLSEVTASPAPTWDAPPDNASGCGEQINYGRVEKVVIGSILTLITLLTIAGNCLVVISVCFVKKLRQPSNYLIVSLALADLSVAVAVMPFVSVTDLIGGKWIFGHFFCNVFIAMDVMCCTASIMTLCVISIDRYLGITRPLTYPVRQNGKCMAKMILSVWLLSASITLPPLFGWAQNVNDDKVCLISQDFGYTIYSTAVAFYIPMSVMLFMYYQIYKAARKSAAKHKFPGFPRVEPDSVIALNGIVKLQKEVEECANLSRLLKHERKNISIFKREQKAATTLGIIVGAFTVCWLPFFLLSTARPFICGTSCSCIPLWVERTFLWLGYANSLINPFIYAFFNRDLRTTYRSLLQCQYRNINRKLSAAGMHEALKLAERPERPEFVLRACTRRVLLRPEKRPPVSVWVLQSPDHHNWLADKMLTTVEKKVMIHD
Sequence of dopaminergic receptors D3 (P35462 whole entry): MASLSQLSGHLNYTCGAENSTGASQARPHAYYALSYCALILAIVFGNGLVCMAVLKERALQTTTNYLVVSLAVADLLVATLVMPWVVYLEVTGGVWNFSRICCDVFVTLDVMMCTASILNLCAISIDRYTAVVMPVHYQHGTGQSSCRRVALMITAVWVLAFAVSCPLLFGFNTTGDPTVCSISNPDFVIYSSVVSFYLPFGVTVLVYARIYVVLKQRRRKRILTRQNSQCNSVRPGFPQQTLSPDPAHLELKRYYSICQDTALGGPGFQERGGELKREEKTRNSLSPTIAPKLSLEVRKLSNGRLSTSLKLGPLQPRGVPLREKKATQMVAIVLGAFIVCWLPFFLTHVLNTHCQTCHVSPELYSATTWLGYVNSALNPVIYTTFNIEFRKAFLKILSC
Sequence of dopaminergic receptors D2 (P14416 whole entry): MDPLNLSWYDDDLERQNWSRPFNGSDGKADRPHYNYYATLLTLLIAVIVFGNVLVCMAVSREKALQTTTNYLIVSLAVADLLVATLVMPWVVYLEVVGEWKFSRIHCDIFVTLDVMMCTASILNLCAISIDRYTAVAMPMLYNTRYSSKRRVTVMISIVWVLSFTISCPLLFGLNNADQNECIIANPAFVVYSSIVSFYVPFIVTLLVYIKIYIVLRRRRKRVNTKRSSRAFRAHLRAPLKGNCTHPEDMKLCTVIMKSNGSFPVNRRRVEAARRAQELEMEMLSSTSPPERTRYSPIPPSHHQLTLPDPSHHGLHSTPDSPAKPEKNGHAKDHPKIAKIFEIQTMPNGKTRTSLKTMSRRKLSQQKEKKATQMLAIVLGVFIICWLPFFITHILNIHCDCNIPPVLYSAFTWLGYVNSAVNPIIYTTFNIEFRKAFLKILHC

Compound: CCCc1ccc(S(=O)(=O)NCC2CN(CCCc3noc4cc(F)ccc34)C2)cc1 [Compound 157, N-[[1-[3-(6-Fluoro-1,2-benzoxazol-3-yl)propyl]azetidin-3-yl]methyl]-4-propyl-benzenesulphonamide]
- inhibition at 1 µM (5-HT7 receptor): 93%
- inhibition at 1 µM [1]: 72%
- inhibition at 1 µM [2]: 25%
- inhibition at 1 µM [3]: 81%
- inhibition at 1 µM [4]: 61%
- inhibition at 1 µM (5-HT6 receptor): 80%
- inhibition at 1 µM (5-HT2A receptor): 95%

Compound: O=S(=O)(NCC1CCN(CCCc2noc3cc(F)ccc23)C1)c1ccc(Cl)cc1 (stereo not drawn) [Compound 242, 4-Chloro-N-[[1-[3-(6-fluoro-1,2-benzoxazol-3-yl)propyl]pyrrolidin-3-yl]methyl]benzenesulphonamide]
- inhibition at 1 µM (5-HT7 receptor): 83%
- inhibition at 1 µM [1]: 71%
- inhibition at 1 µM [2]: 37%
- inhibition at 1 µM [3]: 55%
- inhibition at 1 µM [4]: 11%
- inhibition at 1 µM (5-HT6 receptor): 60%
- inhibition at 1 µM (5-HT2A receptor): 99%

Compound: O=S(=O)(NC1CCN(CCCc2noc3cc(F)ccc23)CC1)c1csc2ccccc12 [Compound 330, N-[1-[3-(6-Fluoro-1,2-benzoxazol-3-yl)propyl]-4-piperidyl]benzothiophene-3-sulphonamide]
- inhibition at 1 µM (5-HT7 receptor): 101%
- inhibition at 1 µM [1]: 64%
- inhibition at 1 µM [2]: 22%
- inhibition at 1 µM [3]: 77%
- inhibition at 1 µM [4]: 82%
- inhibition at 1 µM (5-HT6 receptor): 79%
- inhibition at 1 µM (5-HT2A receptor): 102%

Compound: O=S(=O)(NCC1CCN(CCCc2noc3cc(F)ccc23)C1)c1ccc(F)cc1 (stereo not drawn) [Compound 252, 4-Fluoro-N-[[1-[3-(6-fluoro-1,2-benzoxazol-3-yl)propyl]pyrrolidin-3-yl]methyl]benzenesulphonamide]
- inhibition at 1 µM (5-HT7 receptor): 90%
- inhibition at 1 µM [1]: 43%
- inhibition at 1 µM [2]: -2%
- inhibition at 1 µM [3]: 36%
- inhibition at 1 µM [4]: 44%
- inhibition at 1 µM (5-HT6 receptor): 75%
- inhibition at 1 µM (5-HT2A receptor): 89%

Compound: COc1ccc(S(=O)(=O)NC2CCN(CCCc3noc4cc(F)ccc34)C2)cc1 (stereo not drawn) [Compound 213, N-[1-[3-(6-Fluoro-1,2-benzoxazol-3-yl)propyl]pyrrolidin-3-yl]-4-methoxybenzenesulphonamide]
- inhibition at 1 µM (5-HT7 receptor): 93%
- inhibition at 1 µM [1]: 57%
- inhibition at 1 µM [2]: 12%
- inhibition at 1 µM [3]: 81%
- inhibition at 1 µM [4]: 63%
- inhibition at 1 µM (5-HT6 receptor): 78%
- inhibition at 1 µM (5-HT2A receptor): 100%

Compound: Cc1cccc(S(=O)(=O)NC2CCN(CCCc3noc4cc(F)ccc34)CC2)c1 [Compound 33, N-[1-[3-(6-Fluoro-1,2-benzoxazol-3-yl)propyl]-4-piperidine]-3-methyl-benzenesulphonamide]
- 5-HT7 [%] (5-HT7 receptor): 100%
- D3 [%] [1]: 58%
- SERT [%] [2]: −4%
- D2 [%] [3]: 54%
- 5-HT1A [%] [4]: 22%
- 5-HT6 [%] (5-HT6 receptor): 91%
- 5-HT2A [%] (5-HT2A receptor): 97%

Compound: COc1cccc(S(=O)(=O)NCC2CCN(CCCc3noc4cc(F)ccc34)C2)c1 (stereo not drawn) [Compound 250, N-[[1-[3-(6-Fluoro-1,2-benzoxazol-3-yl)propyl]pyrrolidin-3-yl]methyl]-3-methoxy-benzenesulphonamide]
- inhibition at 1 µM (5-HT7 receptor): 91%
- inhibition at 1 µM [1]: 55%
- inhibition at 1 µM [2]: 23%
- inhibition at 1 µM [3]: 18%
- inhibition at 1 µM [4]: 30%
- inhibition at 1 µM (5-HT6 receptor): 74%
- inhibition at 1 µM (5-HT2A receptor): 87%

Compound: O=S(=O)(NCC1CCN(CCCc2noc3cc(F)ccc23)C1)c1csc2ccccc12 (stereo not drawn) [Compound 261, N-[[1-[3-(6-Fluoro-1,2-benzoxazol-3-yl)propyl]pyrrolidin-3-yl]methyl]-benzothiophene-3-sulphonamide]
- inhibition at 1 µM (5-HT7 receptor): 104%
- inhibition at 1 µM [1]: 65%
- inhibition at 1 µM [2]: 3%
- inhibition at 1 µM [3]: 88%
- inhibition at 1 µM [4]: 78%
- inhibition at 1 µM (5-HT6 receptor): 97%
- inhibition at 1 µM (5-HT2A receptor): 101%

Compound: O=S(=O)(NCC1CCN(CCCc2noc3cc(F)ccc23)C1)c1ccc2c(c1)CCO2 (stereo not drawn) [Compound 256, N-[[1-[3-(6-Fluoro-1,2-benzoxazol-3-yl)propyl]pyrrolidin-3-yl]methyl]-2,3-dihydrobenzofuran-5-sulphonamide]
- inhibition at 1 µM (5-HT7 receptor): 92%
- inhibition at 1 µM [1]: 25%
- inhibition at 1 µM [2]: 40%
- inhibition at 1 µM [3]: 37%
- inhibition at 1 µM [4]: 29%
- inhibition at 1 µM (5-HT6 receptor): 74%
- inhibition at 1 µM (5-HT2A receptor): 87%

Compound: O=S(=O)(NCC1CCN(CCCc2noc3cc(F)ccc23)C1)c1cc2ccccc2o1 (stereo not drawn) [Compound 257, N-[[1-[3-(6-Fluoro-1,2-benzoxazol-3-yl)propyl]pyrrolidin-3-yl]methyl]-benzofuran-2-sulphonamide]
- inhibition at 1 µM (5-HT7 receptor): 88%
- inhibition at 1 µM [1]: 62%
- inhibition at 1 µM [2]: 20%
- inhibition at 1 µM [3]: 92%
- inhibition at 1 µM [4]: 87%
- inhibition at 1 µM (5-HT6 receptor): 94%
- inhibition at 1 µM (5-HT2A receptor): 100%

Compound: O=S(=O)(NC1CCN(CCCc2noc3cc(F)ccc23)C1)c1ccc(Cl)cc1 (stereo not drawn) [Compound 208, 4-Chloro-N-[1-[3-(6-fluoro-1,2-benzoxazol-3-yl)propyl]pyrrolidin-3-yl]benzenesulphonamide]
- inhibition at 1 µM (5-HT7 receptor): 96%
- inhibition at 1 µM [1]: 49%
- inhibition at 1 µM [2]: -2%
- inhibition at 1 µM [3]: 90%
- inhibition at 1 µM [4]: 9%
- inhibition at 1 µM (5-HT6 receptor): 87%
- inhibition at 1 µM (5-HT2A receptor): 100%

Compound: O=S(=O)(NCC1CN(CCCc2noc3cc(F)ccc23)C1)c1cccc(O)c1 [Compound 149, N-[[1-[3-(6-Fluoro-1,2-benzoxazol-3-yl)propyl]azetidin-3-yl]methyl]-3-hydroxy-benzenesulphonamide]
- inhibition at 1 µM (5-HT7 receptor): 113%
- inhibition at 1 µM [1]: 39%
- inhibition at 1 µM [2]: 22%
- inhibition at 1 µM [3]: 91%
- inhibition at 1 µM [4]: 82%
- inhibition at 1 µM (5-HT6 receptor): 71%
- inhibition at 1 µM (5-HT2A receptor): 96%

Compound: Cc1ccc(S(=O)(=O)NC2CCN(CCCc3noc4cc(F)ccc34)C2)cc1 (stereo not drawn) [Compound 209, N-[1-[3-(6-Fluoro-1,2-benzoxazol-3-yl)propyl]pyrrolidin-3-yl]-4-methyl-benzenesulphonamide]
- inhibition at 1 µM (5-HT7 receptor): 90%
- inhibition at 1 µM [1]: 34%
- inhibition at 1 µM [2]: 6%
- inhibition at 1 µM [3]: 64%
- inhibition at 1 µM [4]: 11%
- inhibition at 1 µM (5-HT6 receptor): 62%
- inhibition at 1 µM (5-HT2A receptor): 86%

Compound: CC(C)(C)c1ccc(S(=O)(=O)NC2CCN(CCCc3noc4cc(F)ccc34)CC2)cc1 [Compound 328, 4-tert-Butyl-N-[1-[3-(6-fluoro-1,2-benzoxazol-3-yl)propyl]-4-piperidyl]benzenesulphonamide]
- inhibition at 1 µM (5-HT7 receptor): 90%
- inhibition at 1 µM [1]: 40%
- inhibition at 1 µM [2]: 25%
- inhibition at 1 µM [3]: 64%
- inhibition at 1 µM [4]: 49%
- inhibition at 1 µM (5-HT6 receptor): 94%
- inhibition at 1 µM (5-HT2A receptor): 96%

Compound: Cn1ccc2c(S(=O)(=O)NC3CCN(CCCc4noc5cc(F)ccc45)C3)cccc21 (stereo not drawn) [Compound 219, N-[1-[3-(6-Fluoro-1,2-benzoxazol-3-yl)propyl]pyrrolidin-3-yl]-1-methyl-indole-4-sulphonamide]
- inhibition at 1 µM (5-HT7 receptor): 96%
- inhibition at 1 µM [1]: 81%
- inhibition at 1 µM [2]: 52%
- inhibition at 1 µM [3]: 96%
- inhibition at 1 µM [4]: 85%
- inhibition at 1 µM (5-HT6 receptor): 94%
- inhibition at 1 µM (5-HT2A receptor): 99%
